Results on 63 compounds are retold here after PMC7216583 (Parasites & Vectors, 2020).

The assay deals with Toxoplasma gondii RH-2F tachyzoites. Kind of assay: microbe, parasite or virus in culture. The settings on record: 72 h.
[1] abbreviates: read-out: Parasite inhibition (%) mean, preliminary screen, mean.
Where [2] appears, read: read-out: Parasite inhibition (%) mean, preliminary screen of compound library, mean.
The mark [3] stands for this setting: read-out: Parasite inhibition (%) mean.

Counter-ions that a name gives are not always drawn. Like-named read-outs stand apart in the source and are kept apart here.

For `CCCCCCOC(=O)/N=C(/N)c1ccc(NCc2nc3cc(C(=O)N(CCC(=O)OCC)c4ccccn4)ccc3n2C)cc1`, the inhibition of growth at 5 µM under setting [1] was 1.2%. With `CC=CC1=C(C(=O)O)N2C(=O)[C@@H](NC(=O)[C@H](N)c3ccc(O)cc3)[C@H]2SC1` (mixture of isomers) [Cefprozil hydrate (Cefzil)], under setting [2], the inhibition of growth at 5 µM was 12.3%.

Take `CC1COC2(CCN(c3nc(=O)c4cc(C(F)(F)F)cc([N+](=O)[O-])c4s3)CC2)O1` (racemic) [BTZ043 racemate]: the inhibition of growth at 5 µM under setting [1] is -5.8%. On to `CNCC(O)c1ccc(O)c(O)c1` (racemic) [DL-Adrenaline], for which the inhibition of growth at 5 µM under setting [3] worked out at 1.5%. Regarding `Nc1ncnc2c1c(-c1cccc(OCc3ccccc3)c1)cn2C1CC(CN2CCCC2)C1` (stereo in doubt) [NVP-ADW742], the inhibition of growth at 5 µM under setting [1] was determined as 48.9%.

Regarding `NCC(=O)CCC(=O)O` [5-Aminolevulinic acid hydrochloride], the inhibition of growth at 5 µM under setting [2] amounted to 20.1%.

As for `NC(Cc1c[nH]c2ccc(O)cc12)C(=O)O` (stereo not drawn) [5-hydroxytryptophan (5-HTP)], the inhibition of growth at 5 µM under setting [2] is 0%.

Regarding `NC[C@H](CC(=O)O)c1ccc(Cl)cc1` [(R)-baclofen], the inhibition of growth at 5 µM under setting [2] was found to be 23.1%. For the compound `Cc1nc(NC(=O)N2CCC[C@H]2C(N)=O)sc1-c1csc(C(C)(C)C)n1` [A66], under setting [2], the inhibition of growth at 5 µM turned out to be 0.9%.

As for `COc1ccc(S(=O)(=O)Nc2cccnc2Nc2ccc(O)cc2)cc1` [ABT-751], the inhibition of growth at 5 µM under setting [1] is 22.7%. On to `C[C@]1(c2nc3c(C(N)=O)cccc3[nH]2)CCCN1` [ABT-888 (Veliparib)], for which the inhibition of growth at 5 µM under setting [1] was found to be 50.5%. Same read-out and setting: the figure for `C[C@@H](NCCCc1cccc(C(F)(F)F)c1)c1cccc2ccccc12` [AMG-073 HCl (Cinacalcet HCl)] is -0.4%. Regarding `C[C@@H](NCCCc1cccc(C(F)(F)F)c1)c1cccc2ccccc12` [AMG-073 HCl (Cinacalcet hydrochloride)], the inhibition of growth at 5 µM under setting [2] is 2.4%.

For the compound `CNC(=O)c1ccc(N2C(=S)N(c3cnc(C#N)c(C(F)(F)F)c3)C(=O)C23CCC3)cc1F` [ARN-509], the inhibition of growth at 5 µM under setting [2] came to 28.7%. Turning to `O=C(NC[C@H](O)CO)c1ccncc1Nc1ccc(I)cc1F` [AS703026 (pimasertib)], under setting [1], the inhibition of growth at 5 µM was -20.8%.

Turning to `O=C1NC(=O)/C(=C/c2ccc3c(c2)OC(F)(F)O3)S1` [AS-604850], the inhibition of growth at 5 µM under setting [2] is 0.8%. With `Nc1ncnc2c1ncn2[C@@H]1O[C@@H](COP(=O)(O)OP(=O)(O)OP(=O)(O)O)[C@@H](O)[C@H]1O` [ATP (Adenosine-Triphosphate)], under setting [2], the inhibition of growth at 5 µM is -56.8%. On the same count and under the same terms, under `CNC(=O)c1cccc(-c2ccc3c(N4CCOC[C@@H]4C)nc(N4CCOC[C@@H]4C)nc3n2)c1` [AZD2014] stands 45.5%; under `Nc1nc2c(ncn2COCCO)c(=O)[nH]1` [Acyclovir (Aciclovir)], -55.5%. Turning to `CC(C)(C)C(=O)OCOP(=O)(COCCn1cnc2c(N)ncnc21)OCOC(=O)C(C)(C)C` [Adefovir Dipivoxil (Preveon, Hepsera)], the inhibition of growth at 5 µM under setting [1] is 0%. Consider `Nc1ncnc2[nH]cnc12` [Adenine HCl], for which the inhibition of growth at 5 µM under setting [1] was 22.6%.

Take `Nc1ncnc2nc[nH]c12` [Adenine sulfate]: under setting [3], the inhibition of growth at 5 µM was found to be 11.8%. With `CNCC(=O)c1ccc(O)c(O)c1` [Adrenalone HCl], the inhibition of growth at 5 µM under setting [2] was 17.8%. Consider `CN(C)C/C=C/C(=O)Nc1cc2c(Nc3ccc(F)c(Cl)c3)ncnc2cc1O[C@H]1CCOC1` [Afatinib (BIBW2992)], for which the inhibition of growth at 5 µM under setting [1] came out at 42.8%. As to `COc1ccc2cccc(CCNC(C)=O)c2c1` [Agomelatine], under setting [1], the inhibition of growth at 5 µM was 64.2%. For `C=CCc1cc(OC)c(O)c(C(=O)NCCO)c1` [Alibendol], under setting [2], the inhibition of growth at 5 µM was determined as 0.1%.

For `O=c1[nH]cnc2[nH]ncc12` [Allopurinol Sodium (Aloprim)], the inhibition of growth at 5 µM under setting [1] is -0.7%.

As to `CN(C)CCc1c[nH]c2ccc(CS(=O)(=O)N3CCCC3)cc12` [Almotriptan malate (Axert)], the inhibition of growth at 5 µM under setting [1] amounted to 2%. On to `Cn1c(=O)cc(N2CCC[C@@H](N)C2)n(Cc2ccccc2C#N)c1=O` [Alogliptin (SYR-322)], for which the inhibition of growth at 5 µM under setting [2] was determined as 44.1%. `CC1(C)[C@@H](O[C@H]2O[C@H](C(=O)O)[C@@H](O)[C@H](O)[C@@H]2O[C@@H]2O[C@H](C(=O)O)[C@@H](O)[C@H](O)[C@H]2O)CC[C@@]2(C)[C@H]3C(=O)C=C4[C@@H]5C[C@@](C)(C(=O)O)CC[C@]5(C)CC[C@@]4(C)[C@]3(C)CC[C@@H]12` [Ammonium Glycyrrhizinate (AMGZ)]: the inhibition of growth at 5 µM under setting [2] is 0.1%. As to `CN(C)CCN1C(=O)c2cccc3cc(N)cc(c23)C1=O` [Amonafide], the inhibition of growth at 5 µM under setting [1] is -3.3%.

`CC1(C)S[C@@H]2[C@H](NC(=O)[C@H](N)c3ccc(O)cc3)C(=O)N2[C@@H]1C(=O)O` [Amoxicillin sodium (Amox)]: the inhibition of growth at 5 µM under setting [2] stood at 9.1%.

Turning to `CC(=O)Nc1ccc(OC[C@](C)(O)C(=O)Nc2ccc([N+](=O)[O-])c(C(F)(F)F)c2)cc1` [Andarine (GTX-007)], the inhibition of growth at 5 µM under setting [1] is -18.7%. Regarding `COc1ccc(-n2nc(C(N)=O)c3c2C(=O)N(c2ccc(N4CCCCC4=O)cc2)CC3)cc1` [Apixaban], the inhibition of growth at 5 µM under setting [1] is 2%.

In the case of `CCOC(=O)c1c(CSc2ccccc2)n(C)c2cc(Br)c(O)c(CN(C)C)c12` [Arbidol HCl], the inhibition of growth at 5 µM under setting [2] amounted to 2.8%.

As for `COC(=O)C1=CCCN(C)C1` [Arecoline], the inhibition of growth at 5 µM under setting [2] was -9.5%.

Consider `COc1cc(OC)c(OC)cc1C=O` [Asaraldehyde (Asaronaldehyde)], for which, under setting [2], the inhibition of growth at 5 µM came to 10.2%. Regarding `CC(C)(O)[C@H]1CC[C@@](C)([C@@H]2[C@@H](O)C[C@@]3(C)[C@@H]4C[C@H](O[C@@H]5O[C@H](CO)[C@@H](O)[C@H](O)[C@@H]5O)[C@H]5C(C)(C)[C@@H](O[C@@H]6OC[C@@H](O)[C@H](O)[C@H]6O)CC[C@@]56C[C@]46CC[C@]23C)O1` [Astragaloside A], the inhibition of growth at 5 µM under setting [2] worked out at 15.5%.

Turning to `CC(C)c1cc(C(C)C)c(CC(=O)NS(=O)(=O)Oc2c(C(C)C)cccc2C(C)C)c(C(C)C)c1` [Avasimibe (CI-1011)], under setting [1], the inhibition of growth at 5 µM was determined as 5.1%. Turning to `CC1=C(C(=O)OC(C)C)C(c2cccc([N+](=O)[O-])c2)C(C(=O)OC2CN(C(c3ccccc3)c3ccccc3)C2)=C(N)N1` (stereo not drawn) [Azelnidipine], under setting [2], the inhibition of growth at 5 µM is 15.7%.

Consider `CCOc1nc2cccc(C(=O)OCc3oc(=O)oc3C)c2n1Cc1ccc(-c2ccccc2-c2nc(=O)o[nH]2)cc1` [Azilsartan Medoxomil (TAK-491)], for which the inhibition of growth at 5 µM under setting [2] is 35.5%. Take `COc1c(OCCCN2CCOCC2)ccc2c1N=C(NC(=O)c1cnc(N)nc1)N1CCN=C21` [BAY80-6946]: under setting [2], the inhibition of growth at 5 µM amounted to 40.8%. On to `Cn1c(=O)n(-c2ccc(C(C)(C)C#N)cc2)c2c3cc(-c4cnc5ccccc5c4)ccc3ncc21` [BEZ235 (NVP-BEZ235)], for which the inhibition of growth at 5 µM under setting [1] turned out to be 5.6%. On to `CC[C@@H]1C(=O)N(C)c2cnc(Nc3ccc(C(=O)NC4CCN(C)CC4)cc3OC)nc2N1C1CCCC1` [BI 2536], for which the inhibition of growth at 5 µM under setting [1] was found to be 0.7%. In the case of `Cn1c(CNc2ccc(C(=N)N)cc2)nc2cc(C(=O)N(CCC(=O)O)c3ccccn3)ccc21` [BIBR 953 (Dabigatran etexilate, Pradaxa)], the inhibition of growth at 5 µM under setting [2] worked out at 0.3%. Turning to `C/C(=C\C(=O)Nc1ccccc1C(=O)O)c1ccc2ccccc2c1` [BIBR 1532], the inhibition of growth at 5 µM under setting [1] was 0.4%.

With `CCCCCCOC(=O)/N=C(/N)c1ccc(NCc2nc3cc(C(=O)N(CCC(=O)OCC)c4ccccn4)ccc3n2C)cc1` [BIBR-1048 (Dabigatran)], under setting [2], the inhibition of growth at 5 µM was found to be 8.4%. Turning to `Cc1ccc(-n2nc(C(C)(C)C)cc2NC(=O)Nc2ccc(OCCN3CCOCC3)c3ccccc23)cc1` [BIRB 796 (Doramapimod)], the inhibition of growth at 5 µM under setting [1] stood at 8.9%. `COc1cc2nc(N3CCCN(C)CC3)nc(NC3CCN(Cc4ccccc4)CC3)c2cc1OC` [BIX01294]: under setting [2], the inhibition of growth at 5 µM is 21.8%. Take `Cc1nc(NC(=O)N2CCC[C@H]2C(N)=O)sc1-c1ccnc(C(C)(C)C(F)(F)F)c1` [BYL719]: the inhibition of growth at 5 µM under setting [2] was 47.5%. With `CCN(CCO)CCCOc1ccc2c(Nc3cc(CC(=O)Nc4cccc(F)c4)n[nH]3)ncnc2c1` [Barasertib (AZD1152-HQPA)], the inhibition of growth at 5 µM under setting [1] was found to be 54.4%.

For the compound `O=C(/C=C/c1cccc(S(=O)(=O)Nc2ccccc2)c1)NO` [Belinostat (PXD101)], under setting [1], the inhibition of growth at 5 µM is 65.8%.

On to `N[C@@H]1CCCCN(c2c(F)cc3c(=O)c(C(=O)O)cn(C4CC4)c3c2Cl)C1` [Besifloxacin HCl (Besivance)], for which the inhibition of growth at 5 µM under setting [2] was 39.1%. Still for that read-out and setting: under `C[C@H]1C[C@H]2[C@@H]3CCC4=CC(=O)C=C[C@]4(C)[C@@H]3C(=O)C[C@]2(C)[C@]1(O)C(=O)CO` [Betapar (Meprednisone)] stands 0.9%. With `CC(C)NCC(O)COc1ccc(CCOCC2CC2)cc1` (stereo not drawn) [Betaxolol (Betoptic)], under setting [3], the inhibition of growth at 5 µM was 9.5%. For the compound `CCNC(=O)CCC/C=C\C[C@@H]1[C@@H](/C=C/[C@@H](O)CCc2ccccc2)[C@H](O)C[C@@H]1O` [Bimatoprost], the inhibition of growth at 5 µM under setting [2] worked out at 9%. Take `Cc1cc2c(F)c(Oc3ncnn4cc(OC[C@@H](C)O)c(C)c34)ccc2[nH]1` [Brivanib (BMS-540215)]: the inhibition of growth at 5 µM under setting [3] was 49.8%. For the compound `CN(Cc1ccc(C(C)(C)C)cc1)Cc1cccc2ccccc12` [Butenafine HCl], the inhibition of growth at 5 µM under setting [2] is 7.5%.

Take `CC[C@H](Nc1ncnc2[nH]cnc12)c1nc2cccc(F)c2c(=O)n1-c1ccccc1` [CAL-101 (GS-1101)]: the inhibition of growth at 5 µM under setting [2] stood at 47.8%.

As to `CCNC(=O)[C@H]1O[C@@H](n2cnc3c(N)nc(NCCc4ccc(CCC(=O)O)cc4)nc32)[C@@H](O)[C@@H]1O` [CGS 21680 HCl], the inhibition of growth at 5 µM under setting [1] was 0.9%.

On to `CCc1cc2c(cc1N1CCC(N3CCOCC3)CC1)C(C)(C)c1[nH]c3cc(C#N)ccc3c1C2=O` [CH5424802], for which the inhibition of growth at 5 µM under setting [2] was 46.1%.

Turning to `O=C(NOCC1CC1)c1ccc(F)c(F)c1Nc1ccc(I)cc1Cl` [CI-1040 (PD184352)], under setting [1], the inhibition of growth at 5 µM is 0.4%. For `COc1cc2ncnc(-n3nc(-c4ccccn4)nc3N)c2cc1OC` [CP-466722], the inhibition of growth at 5 µM under setting [2] came to 2.5%.
